Source: the supplement of paper PMC10307832

What was measured:
Assay in all cases: relative viability (nuclei count vs DMSO), 5 days (fraction); higher = more cells survive
Dinaciclib = compound: CCc1cnn2c(NCc3ccc[n+]([O-])c3)cc(N3CCCC[C@H]3CCO)nc12 [Dinaciclib]
Method in brief: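 On vehicle-anchored 1536-well plates, lung cancer cell lines held overnight at 37 °C were pinned with five library-drug doses (not always all listed) spaced by √10. With no medium change over 5 days, they were then fixed, permeabilised and Hoechst-stained in one step and imaged at 4×. MetaXpress counted nuclei, and viability is the median across plates of treated-well over vehicle-well nuclei. Acceptance needed control CV below 25% and at least one doubling.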

Dinaciclib + Bortezomib = compound: CCc1cnn2c(NCc3ccc[n+]([O-])c3)cc(N3CCCC[C@H]3CCO)nc12 [Dinaciclib] + CC(C)C[C@H](NC(=O)[C@H](Cc1ccccc1)NC(=O)c1cnccn1)B(O)O [Bortezomib] (partner 0.002 µM)
Method in brief: (§1)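 Lung cancer cell lines were seeded in 1536-well plates and dosed by pin tool the next day, with either a single drug or a fixed anchor-drug dose combined with five library-drug doses (not always all listed) spaced in √10 steps. Five days later, one step fixed the cells and stained their nuclei (final 0.05% Triton X-100, 1% formaldehyde, 1 ug/ml Hoechst), and nuclei were counted on 4× images. Relative viability is the nuclei count in treated wells divided by the count in vehicle wells, and each value is the median of duplicate plates.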

Dinaciclib + Navitoclax = compound: CCc1cnn2c(NCc3ccc[n+]([O-])c3)cc(N3CCCC[C@H]3CCO)nc12 [Dinaciclib] + CC1(C)CCC(c2ccc(Cl)cc2)=C(CN2CCN(c3ccc(C(=O)NS(=O)(=O)c4ccc(N[C@H](CCN5CCOCC5)CSc5ccccc5)c(S(=O)(=O)C(F)(F)F)c4)cc3)CC2)C1 [Navitoclax] (partner 0.5 µM)
Method in brief: as §1

Dinaciclib + Foretinib = compound: CCc1cnn2c(NCc3ccc[n+]([O-])c3)cc(N3CCCC[C@H]3CCO)nc12 [Dinaciclib] + COc1cc2c(Oc3ccc(NC(=O)C4(C(=O)Nc5ccc(F)cc5)CC4)cc3F)ccnc2cc1OCCCN1CCOCC1 [Foretinib] (partner 0.25 µM)
Method in brief: as §1

Dinaciclib + Lapatinib = compound: CCc1cnn2c(NCc3ccc[n+]([O-])c3)cc(N3CCCC[C@H]3CCO)nc12 [Dinaciclib] + CS(=O)(=O)CCNCc1ccc(-c2ccc3ncnc(Nc4ccc(OCc5cccc(F)c5)c(Cl)c4)c3c2)o1 [Lapatinib] (partner 2 µM)
Method in brief: as §1

Dinaciclib + Pictilisib = compound: CCc1cnn2c(NCc3ccc[n+]([O-])c3)cc(N3CCCC[C@H]3CCO)nc12 [Dinaciclib] + CS(=O)(=O)N1CCN(Cc2cc3nc(-c4cccc5[nH]ncc45)nc(N4CCOCC4)c3s2)CC1 [Pictilisib] (partner 1 µM)
Method in brief: as §1

Dinaciclib + Crizotinib = compound: CCc1cnn2c(NCc3ccc[n+]([O-])c3)cc(N3CCCC[C@H]3CCO)nc12 [Dinaciclib] + C[C@@H](Oc1cc(-c2cnn(C3CCNCC3)c2)cnc1N)c1c(Cl)ccc(F)c1Cl [Crizotinib] (partner 1 µM)
Method in brief: as §1

Dinaciclib + Linsitinib = compound: CCc1cnn2c(NCc3ccc[n+]([O-])c3)cc(N3CCCC[C@H]3CCO)nc12 [Dinaciclib] + C[C@]1(O)C[C@@H](c2nc(-c3ccc4ccc(-c5ccccc5)nc4c3)c3c(N)nccn32)C1 [Linsitinib] (partner 1 µM)
Method in brief: as §1

Dinaciclib + Alpelisib = compound: CCc1cnn2c(NCc3ccc[n+]([O-])c3)cc(N3CCCC[C@H]3CCO)nc12 [Dinaciclib] + Cc1nc(NC(=O)N2CCC[C@H]2C(N)=O)sc1-c1ccnc(C(C)(C)C(F)(F)F)c1 [Alpelisib] (partner 2 µM)
Method in brief: as §1

Dinaciclib + Olaparib = compound: CCc1cnn2c(NCc3ccc[n+]([O-])c3)cc(N3CCCC[C@H]3CCO)nc12 [Dinaciclib] + O=C(c1cc(Cc2n[nH]c(=O)c3ccccc23)ccc1F)N1CCN(C(=O)C2CC2)CC1 [Olaparib] (partner 8 µM)
Method in brief: as §1

Dinaciclib + Luminespib = compound: CCc1cnn2c(NCc3ccc[n+]([O-])c3)cc(N3CCCC[C@H]3CCO)nc12 [Dinaciclib] + CCNC(=O)c1noc(-c2cc(C(C)C)c(O)cc2O)c1-c1ccc(CN2CCOCC2)cc1 [Luminespib] (partner 0.01 µM)
Method in brief: as §1

Dinaciclib + OSI-027 = compound: CCc1cnn2c(NCc3ccc[n+]([O-])c3)cc(N3CCCC[C@H]3CCO)nc12 [Dinaciclib] + COc1cccc2cc(-c3nc([C@H]4CC[C@H](C(=O)O)CC4)n4ncnc(N)c34)[nH]c12 [OSI-027] (partner 0.5 µM)
Method in brief: as §1

Dinaciclib + Dasatinib = compound: CCc1cnn2c(NCc3ccc[n+]([O-])c3)cc(N3CCCC[C@H]3CCO)nc12 [Dinaciclib] + Cc1nc(Nc2ncc(C(=O)Nc3c(C)cccc3Cl)s2)cc(N2CCN(CCO)CC2)n1 [Dasatinib] (partner 0.075 µM)
Method in brief: as §1

Dinaciclib + Phenformin = compound: CCc1cnn2c(NCc3ccc[n+]([O-])c3)cc(N3CCCC[C@H]3CCO)nc12 [Dinaciclib] + N=C(N)NC(=N)NCCc1ccccc1 [Phenformin] (partner 250 µM)
Method in brief: as §1

Dinaciclib + Pemetrexed = compound: CCc1cnn2c(NCc3ccc[n+]([O-])c3)cc(N3CCCC[C@H]3CCO)nc12 [Dinaciclib] + Nc1nc2[nH]cc(CCc3ccc(C(=O)N[C@@H](CCC(=O)O)C(=O)O)cc3)c2c(=O)[nH]1 [Pemetrexed] (partner 0.2 µM)
Method in brief: as §1

NCI-H1299
relative viability (Dinaciclib; 0.009487 µM): 0.98
relative viability (Dinaciclib; 0.03 µM): 0.371
relative viability (Dinaciclib; 0.09487 µM): 0.121
relative viability (Dinaciclib; 0.3 µM): 0.0997
relative viability (Dinaciclib + Bortezomib; first compound 0.009487 µM): 1.05
relative viability (Dinaciclib + Bortezomib; first compound 0.03 µM): 0.216
relative viability (Dinaciclib + Bortezomib; first compound 0.09487 µM): 0.142
relative viability (Dinaciclib + Bortezomib; first compound 0.3 µM): 0.135
relative viability (Dinaciclib + Navitoclax; first compound 0.009487 µM): 1.12
relative viability (Dinaciclib + Navitoclax; first compound 0.03 µM): 0.27
relative viability (Dinaciclib + Navitoclax; first compound 0.09487 µM): 0.107
relative viability (Dinaciclib + Navitoclax; first compound 0.3 µM): 0.107
relative viability (Dinaciclib + Foretinib; first compound 0.009487 µM): 0.986
relative viability (Dinaciclib + Foretinib; first compound 0.03 µM): 0.202
relative viability (Dinaciclib + Foretinib; first compound 0.09487 µM): 0.104
relative viability (Dinaciclib + Foretinib; first compound 0.3 µM): 0.088
relative viability (Dinaciclib + Lapatinib; first compound 0.009487 µM): 0.824
relative viability (Dinaciclib + Lapatinib; first compound 0.03 µM): 0.198
relative viability (Dinaciclib + Lapatinib; first compound 0.09487 µM): 0.137
relative viability (Dinaciclib + Lapatinib; first compound 0.3 µM): 0.124
relative viability (Dinaciclib + Pictilisib; first compound 0.009487 µM): 0.416
relative viability (Dinaciclib + Pictilisib; first compound 0.03 µM): 0.0311
relative viability (Dinaciclib + Pictilisib; first compound 0.09487 µM): 0.0181
relative viability (Dinaciclib + Pictilisib; first compound 0.3 µM): 0.0214
relative viability (Dinaciclib + Crizotinib; first compound 0.009487 µM): 0.709
relative viability (Dinaciclib + Crizotinib; first compound 0.03 µM): 0.681
relative viability (Dinaciclib + Crizotinib; first compound 0.09487 µM): 0.144
relative viability (Dinaciclib + Crizotinib; first compound 0.3 µM): 0.111
relative viability (Dinaciclib + Linsitinib; first compound 0.009487 µM): 0.883
relative viability (Dinaciclib + Linsitinib; first compound 0.03 µM): 0.24
relative viability (Dinaciclib + Linsitinib; first compound 0.09487 µM): 0.103
relative viability (Dinaciclib + Linsitinib; first compound 0.3 µM): 0.0705
relative viability (Dinaciclib + Alpelisib; first compound 0.009487 µM): 1.09
relative viability (Dinaciclib + Alpelisib; first compound 0.03 µM): 0.821
relative viability (Dinaciclib + Alpelisib; first compound 0.09487 µM): 0.15
relative viability (Dinaciclib + Alpelisib; first compound 0.3 µM): 0.188
relative viability (Dinaciclib + Olaparib; first compound 0.009487 µM): 0.962
relative viability (Dinaciclib + Olaparib; first compound 0.03 µM): 0.16
relative viability (Dinaciclib + Olaparib; first compound 0.09487 µM): 0.0946
relative viability (Dinaciclib + Olaparib; first compound 0.3 µM): 0.104

NCI-H1563
relative viability (Dinaciclib; 0.009487 µM): 1.25
relative viability (Dinaciclib; 0.03 µM): 0.552
relative viability (Dinaciclib; 0.09487 µM): 0.314
relative viability (Dinaciclib; 0.3 µM): 0.286
relative viability (Dinaciclib + Bortezomib; first compound 0.009487 µM): 1.13
relative viability (Dinaciclib + Bortezomib; first compound 0.03 µM): 0.485
relative viability (Dinaciclib + Bortezomib; first compound 0.09487 µM): 0.368
relative viability (Dinaciclib + Bortezomib; first compound 0.3 µM): 0.387
relative viability (Dinaciclib + Luminespib; first compound 0.009487 µM): 0.526
relative viability (Dinaciclib + Luminespib; first compound 0.03 µM): 0.272
relative viability (Dinaciclib + Luminespib; first compound 0.09487 µM): 0.177
relative viability (Dinaciclib + Luminespib; first compound 0.3 µM): 0.128
relative viability (Dinaciclib + Foretinib; first compound 0.009487 µM): 1.14
relative viability (Dinaciclib + Foretinib; first compound 0.03 µM): 0.504
relative viability (Dinaciclib + Foretinib; first compound 0.09487 µM): 0.327
relative viability (Dinaciclib + Foretinib; first compound 0.3 µM): 0.291
relative viability (Dinaciclib + OSI-027; first compound 0.009487 µM): 0.795
relative viability (Dinaciclib + OSI-027; first compound 0.03 µM): 0.416
relative viability (Dinaciclib + OSI-027; first compound 0.09487 µM): 0.297
relative viability (Dinaciclib + OSI-027; first compound 0.3 µM): 0.27
relative viability (Dinaciclib + Lapatinib; first compound 0.009487 µM): 1.24
relative viability (Dinaciclib + Lapatinib; first compound 0.03 µM): 0.489
relative viability (Dinaciclib + Lapatinib; first compound 0.09487 µM): 0.411
relative viability (Dinaciclib + Lapatinib; first compound 0.3 µM): 0.423
relative viability (Dinaciclib + Pictilisib; first compound 0.009487 µM): 0.655
relative viability (Dinaciclib + Pictilisib; first compound 0.03 µM): 0.326
relative viability (Dinaciclib + Pictilisib; first compound 0.09487 µM): 0.296
relative viability (Dinaciclib + Pictilisib; first compound 0.3 µM): 0.284
relative viability (Dinaciclib + Crizotinib; first compound 0.009487 µM): 1.03
relative viability (Dinaciclib + Crizotinib; first compound 0.03 µM): 0.379
relative viability (Dinaciclib + Crizotinib; first compound 0.09487 µM): 0.34
relative viability (Dinaciclib + Crizotinib; first compound 0.3 µM): 0.303
relative viability (Dinaciclib + Linsitinib; first compound 0.009487 µM): 1.39
relative viability (Dinaciclib + Linsitinib; first compound 0.03 µM): 0.794
relative viability (Dinaciclib + Linsitinib; first compound 0.09487 µM): 0.331
relative viability (Dinaciclib + Linsitinib; first compound 0.3 µM): 0.376
relative viability (Dinaciclib + Alpelisib; first compound 0.009487 µM): 1.09
relative viability (Dinaciclib + Alpelisib; first compound 0.03 µM): 0.459
relative viability (Dinaciclib + Alpelisib; first compound 0.09487 µM): 0.388
relative viability (Dinaciclib + Alpelisib; first compound 0.3 µM): 0.302
relative viability (Dinaciclib + Dasatinib; first compound 0.009487 µM): 0.448
relative viability (Dinaciclib + Dasatinib; first compound 0.03 µM): 0.307
relative viability (Dinaciclib + Dasatinib; first compound 0.09487 µM): 0.133
relative viability (Dinaciclib + Dasatinib; first compound 0.3 µM): 0.123
relative viability (Dinaciclib + Phenformin; first compound 0.009487 µM): 0.745
relative viability (Dinaciclib + Phenformin; first compound 0.03 µM): 0.365
relative viability (Dinaciclib + Phenformin; first compound 0.09487 µM): 0.259
relative viability (Dinaciclib + Phenformin; first compound 0.3 µM): 0.236
relative viability (Dinaciclib + Pemetrexed; first compound 0.009487 µM): 0.704
relative viability (Dinaciclib + Pemetrexed; first compound 0.03 µM): 0.393
relative viability (Dinaciclib + Pemetrexed; first compound 0.09487 µM): 0.161
relative viability (Dinaciclib + Pemetrexed; first compound 0.3 µM): 0.13
